Residues, ends and D or L forms follow the SMILES beside them. *: point of attachment. X3 = OC[C@H]1O[C@H](OCCn2cc(C*)nn2)[C@@H](O)[C@@H](O)[C@@H]1O; X4 = OC[C@H]1O[C@@H](OCCn2cc(C*)nn2)[C@H](O)[C@@H](O)[C@@H]1O; X6 = O[C@@H]1[C@@H](O)[C@@H](OCCn2cc(C*)nn2)O[C@H](CF)[C@H]1O; X1 = OC[C@H]1O[C@@H](OCCn2cc(C*)nn2)[C@H](O)[C@@H](O)[C@H]1O; X2 = O[C@@H]1[C@@H](O)[C@H](OCCn2cc(C*)nn2)O[C@H](CF)[C@H]1O; X5 = O[C@@H]1[C@H](O)[C@@H](OCCn2cc(C*)nn2)O[C@H](CF)[C@H]1O
Experiment: Antiplatelet activity in citrated human platelet rich plasma assessed as inhibition of ADP-induced platelet aggregation incubated for 10 mins at 37 degC by light transmission aggregometry
Type: functional

Structure (SMILES) | IC50 [µM]
NC(N)=NCCC[C@H](N)C(=O)NCC(=O)N[C@@H](CC(=O)O)C(=O)O | 319
CC(C)[C@@H]1NC(=O)[C@H](Cc2ccccc2)NC(=O)[C@H](CC(=O)O)NC(=O)CNC(=O)[C@H](CCCNC(=N)N)NC1=O | 72
N=C(N)NCCC[C@@H]1NC(=O)[C@H](CSCc2cn(CCO[C@@H]3O[C@H](CF)[C@@H](O)[C@H](O)[C@H]3O)nn2)NC(=O)[C@H](Cc2ccccc2)NC(=O)[C@H](CC(=O)O)NC(=O)CNC1=O | 148
N=C(N)NCCC[C@H](N)C(=O)NCC(=O)N[C@@H](CC(=O)O)C(=O)N[C@@H](CSCc1cn(C[C@H]2O[C@H](O[C@H]3O[C@H](Cn4cc(CSC[C@H](NC(=O)[C@H](CC(=O)O)NC(=O)CNC(=O)[C@@H](N)CCCNC(=N)N)C(=O)O)nn4)[C@@H](O)[C@H](O)[C@H]3O)[C@@H](O)[C@@H](O)[C@@H]2O)nn1)C(=O)O | 76.5
N=C(N)NCCC[C@H](N)C(=O)NCC(=O)N[C@@H](CC(=O)O)C(=O)N[C@@H](CSCc1cn(CCO[C@@H]2O[C@H](CO)[C@H](O)[C@H](O)[C@H]2O)nn1)C(=O)O (H-RGDC(X1)-OH) | 23
N=C(N)NCCC[C@H](N)C(=O)NCC(=O)N[C@@H](CC(=O)O)C(=O)N[C@@H](CSCc1cn(CCO[C@@H]2O[C@H](CF)[C@@H](O)[C@H](O)[C@H]2O)nn1)C(=O)O (H-RGDC(X2)-OH) | 66
N=C(N)NCCC[C@H](N)C(=O)NCC(=O)N[C@@H](CC(=O)O)C(=O)N[C@@H](CSCc1cn(CCO[C@H]2O[C@H](CO)[C@@H](O)[C@H](O)[C@@H]2O)nn1)C(=O)O (H-RGDC(X3)-OH) | 47.6
N=C(N)NCCC[C@H](N)C(=O)NCC(=O)N[C@@H](CC(=O)O)C(=O)N[C@@H](CSCc1cn(CCO[C@@H]2O[C@H](CO)[C@@H](O)[C@H](O)[C@H]2O)nn1)C(=O)O (H-RGDC(X4)-OH) | 44
N=C(N)NCCC[C@H](N)C(=O)NCC(=O)N[C@@H](CC(=O)O)C(=O)N[C@@H](CSCc1cn(CCO[C@H]2O[C@H](CF)[C@@H](O)[C@H](O)[C@@H]2O)nn1)C(=O)O (H-RGDC(X5)-OH) | 23.5
N=C(N)NCCC[C@H](N)C(=O)NCC(=O)N[C@@H](CC(=O)O)C(=O)N[C@@H](CSCc1cn(CCO[C@H]2O[C@H](CF)[C@@H](O)[C@H](O)[C@H]2O)nn1)C(=O)O (H-RGDC(X6)-OH) | 26
NC(N)=NCCC[C@H](N)C(=O)NCC(=O)N[C@@H](CC(=O)O)C(=O)N[C@@H](CS)C(=O)O (H-RGDC-OH) | 322
N=C(N)NCCC[C@@H]1NC(=O)[C@H](CS)NC(=O)[C@H](Cc2ccccc2)NC(=O)[C@H](CC(=O)O)NC(=O)CNC1=O (cyclo(RGDFC)) | 65
